Reference: US20100298376A1, “USE OF NOVEL NEUROPROTECTIVE 3-SUBSTITUTED INDOLONE COMPOSITIONS” (BOARD OF REGENTS, THE UNIVERSITY OF TEXAS SYSTEM, priority 2009, published 2010)
Values joined by “and” are separate entries in the source; they are usually repeats but may differ in a detail not shown here. Equal entries are not always repeated. Where two headings read alike, the source gives them in different places.

Tests used:
[1] = test system: cerebellar granule neurons; conditions: for % neuronal survival Mean ± SD: 24 hours, percent of HK control
Protocol: These compounds were analyzed for their neuroprotective activity in vitro. Granule neuron cultures were obtained from dissociated cerebella of 7-8 day old Wistar rats as known to one of ordinary skill in the art. Cells were plated in Basal Eagle's Medium with Earles salts (BME) supplemented with 10% fetal calf serum (FCS), 25 mM KCl, 2 mM glutamine (Invitrogen), and 100 μg/ml gentamycin on dishes (Nunc) coated with poly-L-lysine in 24-well dishes at a density 1×10^6 cells/well. Cytosine arabinofuranoside (10 μM) was added to the culture medium 18-22 hours after plating to prevent replication of non-neuronal cells that yields highly pure culture of granule neurons. The neuronal cultures were maintained for 7-8 days prior to treatments.
This experimental model of neuronal apoptosis has been used widely used to understand the molecular mechanisms underlying neurodegeneration and to identify biological and chemical agents with neuroprotective efficacy. For this, the cells were rinsed once and then maintained in low K^+ medium (serum-free BME medium, 5 mM KCl; referred to as LK), or in the case of control cultures, in high K^+ medium (serum-free BME medium, supplemented with 20 mM KCl; referred to as HK). Each compound was tested at three different concentrations of 1 μM, 5 μM, and 25 μM. The 25 μM concentration was included to evaluate neurotoxicity. For treatments, the chemical compounds (dissolved in dimethylsulfoxide) were added directly to LK medium at the time of the switch from HK at concentrations of 1 μM, 5 μM, or 25 μM. Viability was assessed 24 hours later. Each compound was tested in duplicate (at each of the concentrations) and the experiment repeated at least 3 times. Although all compounds were solubilized in dimethylsulfoxide (DMSO), the amount of DMSO in the cultures never exceeded 0.1% (v/v).
The viability status of neuronal cultures treated with HK, LK, or LK medium supplemented with various compounds was evaluated by phase contrast microscopy and quantified by staining cell nuclei with 4′,6′-diamidino2-phenylindole hydrochloride (DAPI). Briefly, the cells were fixed in 4% paraformaldehyde for 20 minutes at 4′C. After washing in phosphate buffered saline, DAPI (1 μg/ml in phosphate buffered saline) was added for 15 min at room-temperature and viewed under ultraviolet light (260 nm). Cells with condensed or fragmented nuclei were scored as dead. […] Statistical analysis was performed using an unpaired, two-tailed Student's t test, compared to mean neuronal survival of control cultures receiving LK treatment and the quantitative data are presented in Tables 1 and 2 for each compound.

[2] = Z/E isomer stability in DMSO-d6 by NMR; type: physicochemical; conditions: 6 hours from mixing
[3] = Solubility in the culture medium; conditions: 25 μM
[4] = test system: cerebellar granule neurons; assay: TUNEL and active caspase-3 immunoreactivity in neuronal cultures (FIG. 1); type: cell-based, Wistar rats; conditions: Compound 31 at 1 μm, compared with Compounds 7, 37 and 39, 24 hours
Text: FIG. 1 is a photograph illustrating the qualitative neuroprotective effects of Compound 7 (5 μm), Compound 31 (1 μm), Compound 37 (25 μm) and Compound 39 (25 lam) are illustrated presented in the figure. From left to right columns show phase-contrast micrographs of neuronal morphology, DAPI staining of nuclei showing fragmented nuclei, TUNEL staining also showing fragmented DNA, and active caspase-3 immunoreactivity highly indicative of apoptosis. DAPI and TUNEL panels are taken from the same fields.
The TUNEL assay of neuronal cultures was performed 24 hours after treatment of the cultures using DEADEND™ Fluorometric TUNEL System from Promega (Madison, Wis.) according to the manufacturer's instructions. For immunocytochemical analysis of active caspase 3, neuronal cultures cells were fixed and treated with 0.2% Triton for 5 minutes. After blocking with PBS containing 5% BSA and 5% goat serum in PBS for 30 minutes, the coverslips were incubated with the active capase-3 primary antibody overnight at 4° C. After three washes with phosphate-buffered saline (PBS), the cells were incubated with secondary antibodies for 45 minutes at 25° C. after which the cells were washed with PBS. To visualize nuclei, cells were stained with DAPI for 15 minutes at 25° C.

[5] = LK medium, concentration not specified
[6] = at 1 μM and 5 μM (two lower concentrations)

| Compound | neuroprotective activity (in words) [1, 5] | % neuronal survival Mean ± SD ([1]; Table 1, 1 μM in LK medium) | % neuronal survival Mean ± SD ([1]; Table 1, 5 μM in LK medium) | % neuronal survival Mean ± SD ([1]; Table 1, 25 μM in LK medium) | % neuronal survival Mean ± SD ([1]; Table 2, 1 μM in LK medium) | % neuronal survival Mean ± SD ([1]; Table 2, 5 μM in LK medium) | % neuronal survival Mean ± SD ([1]; Table 2, 25 μM in LK medium) | other results |
| --- | --- | --- | --- | --- | --- | --- | --- | --- |
| O=C1Nc2ccccc2/C1=C\c1cc(Br)c(O)c(Br)c1 [Compound 1, (E)-3-(3′,5′-Dibromo-4′-hydroxybenzylidene)indolin-2-one] | moderately effective | 69.7 ± 2.19 % | 88.4 ± 11.74 % | 84.6 ± 7.57 % |  |  |  | neurotoxicity (in words) [1]: not toxic; percent of Z configuration after 6 hours [2]: 50% |
| O=C1Nc2ccc(Cl)cc2/C1=C\c1cc(Br)c(O)c(Br)c1 [Compound 7, (E)-3-(3′,5′-Dibromo-4-hydroxybenzylidene)-5-chlorondolin-2-one] |  | 84.3 ± 1.04 % | 91.9% and 91.9 ± 5.31 % | 81.8 ± 14.94 % |  |  |  | neurotoxicity (in words) [1]: not toxic; neuroprotective activity (in words) ([1]; at 5 μM): highly effective; percent of Z configuration after 6 hours [2]: 70% |
| O=C1Nc2ccc(Br)cc2/C1=C\c1cc(Br)c(O)c(Br)c1 [Compound 16, (E)-5-Bromo-3-(3′,5′-dibromo-4-hydroxybenzylidene)indolin-2-one] | superior to Compound 1 | 88.4 ± 0.71 % | 98.7% and 98.7 ± 3.85 % |  |  |  |  | neurotoxicity (in words) [1]: not toxic; neuroprotective activity (in words) [1, 6]: highly protective; neuroprotective activity (in words) ([1]; at 5 μM): highly effective; percent of Z configuration after 6 hours [2]: 80%; solubility in the culture medium (in words) [3]: not completely soluble |
| O=C1Nc2ccc([N+](=O)[O-])cc2/C1=C/c1cc(Br)c(O)c(Br)c1 [Compound 21, (Z)-3-(3′,5′-Dibromo-4-hydroxybenzylidene)-5-nitroindolin-2-one] | superior to Compound 1 | 79.9 ± 12.81% | 78.4 ± 31.66% | 71.3 ± 19.80% |  |  |  | percent of Z configuration after 6 hours [2]: 70% |
| O=C1Nc2ccc(F)cc2/C1=C\c1cc(Br)cc(Br)c1 [Compound 31, (E)-3-(3′,5′-Dibromobenzylidene)-5-fluoroindolin-2-one] | lack of neuroprotective activity | 38.4 ± 6.24% | 46.1 ± 4.00% | 48.1 ± 14.65% |  |  |  | TUNEL and active caspase-3 immunoreactivity (in words) [4]: greater TUNEL and active caspase-3 immunoreactivity |
| O=C1Nc2ccc(F)cc2/C1=C\c1ccccc1 [Compound 33, (E)-3-Benzylidene-5-fluoroindolin-2-one] | not effective | 53.4 ± 2.12% | 51.9 ± 15.56% | 31.5 ± 17.51% |  |  |  |  |
| CC(=O)c1ccc2c(c1)/C(=C/c1cc(Br)c(O)c(Br)c1)C(=O)N2 [Compound 34, (Z)-5-Acetyl-3-(3′,5′-dibromo-4′-hydroxybenzylidene)indolin-2-one] | superior to Compound 1 | 96.8% and 96.8 ± 6.15 % | 110.3% and 110.3 ± 8.50 % | 2.2 ± 1.63 % |  |  |  | neuroprotective activity (in words) [1, 6]: impressive neuroprotection |
| O=C1Nc2ccccc2/C1=C/c1ccc[nH]1 [Compound 35] |  |  |  |  | 56.0 ± 17.21% | 51.1 ± 7.06% | 3.88 ± 9.58 % |  |
| O=C1Nc2ccc(Cl)cc2/C1=C/c1ccc[nH]1 [Compound 36] | moderate protective activity |  |  |  | 71.2 ± 0.02 % | 84.0 ± 16.97 % | 82.6 ± 10.18 % |  |
| CC(=O)c1ccc2c(c1)/C(=C/c1ccc[nH]1)C(=O)N2 [Compound 38] | moderate protective activity |  |  |  | 69.5 ± 12.61% | 87.3 ± 22.50% | 87.1 ± 24.50% |  |
| O=C1Nc2ccc([N+](=O)[O-])cc2/C1=C/c1ccc[nH]1 [Compound 39] |  |  |  |  | 84.4 ± 3.41 % | 90.1 ± 6.55 % | 87.9 ± 1.40 % |  |
| O=C1Nc2ccc(F)cc2/C1=C/c1ccc[nH]1 [Compound 40] | highest neuroprotective activity |  |  |  | 58.4 ± 3.98% | 65.7 ± 0.07% | 96.6 ± 1.91 % | neuroprotective activity (in words) ([1]; at 25 μM / high doses): the most effective one |
| O=C1Nc2ccccc2/C1=C/c1cccs1 [Compound 41, (Z)-3-(Thien-2′-ylmethylene)indolin-2-one] |  |  |  |  | 68.3 ± 13.16% | 77.1 ± 13.16% | 86.2 ± 4.03 % | neuroprotective activity (in words) ([1]; at 25 μM / high doses): moderately active |
| O=C1Nc2ccc([N+](=O)[O-])cc2/C1=C/c1cccs1 [Compound 42, (Z)-5-Nitro-3-(thien-2′-ylmethylene)indolin-2-one] |  |  |  |  | 75.1 ± 9.11 % | 67.6 ± 2.29% | 66.9 ± 10.30% |  |
| O=C1Nc2ccc(F)cc2/C1=C/c1cccs1 [Compound 44, (Z)-5-Fluoro-3-(thien-2′-ylmethylene)indolin-2-one] | low protection |  |  |  | 53.6 ± 14.24% | 60.1 ± 10.28% | 68.7 ± 9.35% |  |
| O=C1Nc2ccccc2/C1=C\c1ccco1 [Compound 45, (E)-3-(Furan-2′-ylmethylene)indoline-2-one] | excellent activity |  |  |  | 70.4 ± 8.35% | 82.8 ± 5.22 % | 90.2 ± 3.91 % |  |
| (Z)-5-Bromo (3-(1H-pyrrol-2′-yl)methylene)indolin-2-one [Compound 37] | one of the most potent effective neuroprotective agents discovered |  |  |  | 75.5 ± 14.58% | 94.2 ± 0.15 % | 93.0 ± 1.38 % |  |
| (Z)-5-Bromo-3-(thien-2′-ylmethylene)indolin-2-one [Compound 43] |  |  |  |  | 56.8 ± 5.62% | 58.3 ± 9.82% | 66.4 ± 4.56% |  |
